# Several values for one entry are separate records, joined by “and”; a condition that tells them apart may be missing. Identical values can stand only once.
# What was measured:
# [1] = tested on: HK-2 cells; assay: TGF-β-induced α-SMA expression, western blot; assay type: cell-based, human
# Experimental: INS018-055 stock was diluted to eight concentrations in a threefold dilution with DMSO from the final highest concentration at 10 μM. A total of 3.0 × 10^5 HK-2 cells per well were seeded into a six-well plate containing 2.0 ml culture medium at a density of 3.0 × 10^5 cells per well. The cells were cultured overnight at 37 °C. The next day, the complete medium was replaced with K-SFM medium supplemented with 0.025 mg ml^−1 bovine pituitary extract, 2.5 ng ml^−1 EGF and 1% penicillin–streptomycin for starvation. After 24 h of incubation, HK-2 cells were treated with compounds (eight concentrations, threefold dilution) for 30 min before being stimulated with 8 ng ml^−1 TGF-β for an additional 48 h. TGF-β induction was used as the maximum induction positive control. The final DMSO concentration in the assay was 0.1%. Cells were cultured for 48 h at 37 °C. The culture medium was discarded at the end of induction. Cells were washed once using ice-cold DPBS. RIPA buffer was added to lyse the cells for 20 min. Cells were collected, and the supernatant was stored at −80 °C. The total amount of protein in the lysate was determined using the BCA Protein Assay Kit.
# For whole-cell lysates, cells were collected and lysed on ice for 20 min with RIPA buffer with protease and phosphatase inhibitors (cOmplete and PhosSTOP, Roche). The protein concentration of the cell lysates was determined using the BCA Protein Assay Kit. After denaturation, whole-cell lysates and cytoplasm and nuclear extraction fractions were loaded onto 4–12% gradient Bis-Tris gels (15 wells) and 4–20% Tris-glycine gels (26 wells), respectively. For western blot detection of target proteins, 15 μg of whole-cell lysates, 5–10 μg of the cytoplasm fraction, 1–2 μg of nuclear matrix and 2–4 μg of the chromatin fraction were loaded into each lane. For western blot detection of histone 3, 0.4–1 μg of the chromatin fraction was loaded. The gels were run for 0.5 h at 80 V before being run at 120 V for another 1 h. When electrophoresis was completed, the gels containing target proteins were transferred onto NC membrane using the iBlot 2 Gel Transfer Device for 13 min at 20 V. All membranes were blocked with 5% BSA in TBST buffer at room temperature for 1 h and then incubated with primary antibodies specific to the indicated targets in TBST buffer containing 5% BSA at 4 °C overnight. After the primary antibody, membranes were washed three times with TBST buffer before incubation with HRP-conjugated secondary antibodies at room temperature for 1 h. Membranes were stripped with Restore Western Blot Stripping Buffer (Thermo Fisher) for GAPDH reference protein detection after exposure for the target proteins. Images of blots were acquired using Image Quant LAS 4000. Integrated intensity of bands from 16-bit blot images was used for quantitation with the software Image Studio Lite. Protein-quantification data of two independent experiments were calculated and analyzed using GraphPad.
# [2] = tested on: Sprague Dawley rats; assay: Bleomycin-induced skin scarring model; assay type: in vivo, rat; conditions: 0.05% topical
# Experimental: Animals were anesthetized using isoflurane. Using a 1-ml syringe containing a 27-gauge needle, 100 µl bleomycin (1 mg ml^−1 in PBS) solution was injected subcutaneously into two sites on the shaved dorsal regions, QD for 4 weeks. Rats in the naive control group were injected daily with an equivalent volume of sterile PBS. […] After 4 weeks of treatment, animals were killed with CO2, and skin was collected.
# Hydroxyproline and collagen concentrations were normalized to total protein content using the Bradford method.
# [3] = tested on: C57BL/6 mice; assay: Bleomycin-induced lung fibrosis model, combination with pirfenidone; assay type: in vivo, mouse; conditions: INS018_055 3mpk BID; 3 mg/kg
# Experimental: Mice received bleomycin on day 1 at a dose of 0.66 mg per kg (equivalent to 1 U per kg), in a volume of 50 μl by intratracheal administration, or received saline (sham group). On day 7, dosing with the corresponding compounds was started. The vehicle group (group 1) was treated with 0.5% methylcellulose BID. […] On days 5 and 21, lung function measurement was performed. On day 28, all animals were killed, and blood and tissue samples were collected along with BALF.
# Lung function was measured according to the HDB standard protocol. Expiratory time, relaxation time, peak expiratory flow and peak inspiratory flow were collected and used to calculate Penh data.
# Lung sections were cut at a thickness of 4 μm, dried in an oven for 1 h and stained with M&T using our standard protocol. Briefly, sections were stained with Weigert’s iron hematoxylin working solution for 10 min, stained in Biebrich scarlet–acid fuchsin solution for 10 min, differentiated in phosphomolybdic–phosphotungstic acid solution for 5 min or until the collagen was not red, transferred to aniline blue solution, stained for 1 min and then dedifferentiated in 1% acetic acid solution. Next, sections were dehydrated and coverslipped for subsequent image analysis. For image analysis of collagen deposition, Masson’s trichrome-stained slides were scanned by using Aperio ScanScope Model CS2 (Leica) at ×200 magnification. Images were then opened with HALO. Using the pen tool, the whole left lung section was selected as an annotation layer. The area occupied by blue collagen fibers was measured using the pen tool. The percentage of fibrosis (positive areas) in the selected annotation was then calculated with the program. Fibrosis was expressed as a percentage per lung section.
# Sections (4 μm thick) were placed on slides, and, after overnight drying, paraffin was removed with xylene. Next, sections were placed in a graded ethanol series and immersed in distilled water. After heat-induced citrate antigen (pH 6.0) unmasking, sections were immersed in 3% hydrogen peroxide solution for 5 min. […] Next, secondary antibodies conjugated to HRP were added. For image analysis of fibrosis, stained sections were used and scanned with the Aperio CS2 Scanner machine. Images were then opened with HALO. Using the pen tool, the whole left lung section was selected as an annotation layer. The bronchus was excluded in the annotation layer. The area occupied by collagen fibers was measured using the ‘Area Quantification v2.1.3’ module. The percentage of positive areas in the selected annotation was then calculated using the program.
structure (smiles),measurement,setting,value
"CC(C)n1cnc(-c2ccc(F)cc2)c1-c1nc(C(=O)Nc2ccc(N3CCN(C)CC3)cc2)c[nH]1 [INS018_055, 2-[4-(4-fluorophenyl)-1-(prop-2-yl)imidazol-5-yl]-N-[4-(4-methylhexahydropyrazin-1-yl)phenyl]-1H-imidazole-4-carboxamide]",a-SMA normalized by GAPDH,[1]; 0.004572 uM,2.139
same,a-SMA normalized by GAPDH,[1]; 0.0411523 uM,1.835
same,a-SMA normalized by GAPDH,[1]; 0.123457 uM,1.612
same,a-SMA normalized by GAPDH,[1]; 0.37037 uM,1.401
same,a-SMA normalized by GAPDH,[1]; 3.33333 uM,1.182
same,a-SMA normalized by GAPDH,[1]; 10 uM,1.23
same,IC50,"[1]; TGF-β 8 ng/ml, 48 h, single experiment, read-out: IC50 for α-SMA inhibition",104 nM
same,Hydroxyproline in skin,[2],1036.36 and 1122.01 and 1193.18 and 833.714 and 660.98
same,Total collagen in skin,[2],114.74 and 120.73 and 157.27 and 80.17 and 90.17
same,Modified Ashcroft Score,[3],5.75 and 4.5 and 3

# Reference: paper PMC11738990, “A small-molecule TNIK inhibitor targets fibrosis in preclinical and clinical models” (Nature Biotechnology, 2024)
